{
  "source": "patent US20260355312A1",
  "about": "“COMBINED THERAPY DRUG COMPRISING ANTI-HER2 BISPECIFIC ANTIBODY AND USE THEREOF” (JIANGSU ALPHAMAB BIOPHARMACEUTICALS CO., LTD., priority 2023, published 2026)",
  "origin": "cited, not measured here",
  "tested_on": "tumor",
  "data": [
    {"smiles": "CC(=O)O[C@@]12CO[C@@H]1C[C@H](O)[C@@]1(C)C(=O)[C@H](O)C3=C(C)[C@@H](OC(=O)[C@H](O)[C@@H](NC(=O)OC(C)(C)C)c4ccccc4)C[C@@](O)([C@@H](OC(=O)c4ccccc4)[C@H]21)C3(C)C", "note": "[Docetaxel, docetaxel]", "values": [
      {"measurement": "antitumor activity compared to paclitaxel", "value": "stronger antitumor activity than paclitaxel"}
    ]}
  ]
}
